Experimental findings from PMC7369637, “Inhibition of Resistance-Refractory P. falciparum Kinase PKG Delivers Prophylactic, Blood Stage, and Transmission-Blocking Antiplasmodial Activity” (Cell Chemical Biology, 2020) are described below.

Common to all, as to format: cell-based
In experiment [1] the test system is early and late stage gametocytes (3D7elo1-pfs16-CBG99). Description: Gametocyte susceptibility, CBG99-luciferase assay. The conditions noted are these: Plasmodium falciparum. The method, then:
This was determined using two separate assays. The first involved MitoTracker staining and high-content imaging. Mature (stage V) gametocytes were generated from NF54 ABS cultures as described elsewhere ([Plouffe et al., 2016]). Briefly, asexual parasites were cultured at 5% hematocrit in O^+ human erythrocytes in serum-containing complete media (RPMI 1640 (Life Technologies), 0.05 mg/ml gentamicin (Life Technologies), 0.014 mg/ml hypoxanthine (Sigma), 38.4 mM HEPES (Sigma), 0.2% (w/v) sodium bicarbonate (Sigma), D-glucose 0.2% (w/v) (Sigma), 3.4 mM sodium hydroxide (Sigma), 4.3% (v/v) heat-inactivated human serum (O^+, Interstate Blood bank), and 0.2% (w/v) AlbuMAX® II (Life Technologies)). Parasites were cultured at 37 °C under low-oxygen conditions (3% O2, 5% CO2, 92% N2) and parasitemias were maintained between 0.5% and 3% in cultures with 5% hematocrit. Ring-stage parasites underwent three rounds of synchronization with 5% (w/v) D-Sorbitol (Sigma), on days -8, -6 and -4 relative to the day of initiating gametocyte production. Trophozoite-stage parasites were shaken overnight at 37°C until day -1. On day -2 only 50% of the media was exchanged to provide additional stress to cultures, whose parasitemias had typically attained 7-10%. Complete media exchange was performed daily from day -1 onwards. Stage V gametocytes were treated with 50 mM N-acetyl glucosamine (Sigma) on days 0-9. […] The second assay assessed gametocyte susceptibility using a luciferase-based assay with 3D7elo1-pfs16-CBG99 transgenic parasites ([Cevenini et al., 2014]). […] Cell viability was then evaluated by adding a non-lysing formulation of 0.5 mM D-Luciferin substrate and measuring luciferase activity for 0.5 s on a Varioskan™ Flash Multimode Reader (Thermo Scientific). The percent of viability was calculated as a function of drug concentration and IC50 values were derived by non-linear regression analysis and curve fitting (using GraphPad Prism 6.0).

The test system of experiment [2] is ed. Dd2-B2 TKL3KO. Nature of the experiment: 72-h ABS assay, TKL3 knockout line. The note with it: Plasmodium falciparum, parent Dd2-B2 wild-type. The method, then:
(§1) Synchronicity was achieved using three rounds of sorbitol treatment on early rings, spaced 48 h apart, followed by magnetic purification of segmented schizonts following the final sorbitol treatment. Parasites were highly synchronous to within a 3 h window of development. Assays were repeated on at least three independent occasions (each with technical duplicates) and statistical significance was assessed using Mann Whitney U tests.
The resulting MMV030084-resistant parasites were cloned by limiting dilution ([Baker et al., 2017]) to obtain genetically homogenous cultures for further phenotyping and whole-genome sequencing. A second round of […]. […] Drug susceptibility of resistant lines was assessed using a 72 h ABS assay as described above, and a Mann Whitney U test was applied to assess statistically significant differences.
A CRISPR/Cas9 targeted gene editing strategy using an all-in-one plasmid approach was applied to introduce T1268R, I1250M and T1268R+I1250M in wild-type Dd2-B2 parasites or to produce a TKL3 KO line by inserting a stop codon and frameshift at amino acid position 1268. […] WR99210 (2.5 nM) was added to the culture medium 24 h after electroporation to select for successfully transfected parasites and was maintained in the medium until edited parasites were detected. […]

Experiment [3] relates to NF54 CDPK1T145M mutant line. Description: ABS susceptibility, CDPK1 gatekeeper mutant line. The note with it: Plasmodium falciparum, NF54, read-out: Mean IC50. The method, then: as §1

Like-named read-outs stand apart in the source and are kept apart here.

As for `CC(C)(CN)c1nc(-c2ccc(Cl)c(O)c2)c(-c2ccncc2)[nH]1` [MMV030084], the IC50 is over 37.5 µM in experiment [1] (read-out: IC50, sexual gametocyte stage (Figure 1B)); over 40 µM in experiment [1] (CBG99-luciferase assay, 48 h, read-out: IC50, early stage gametocytes); over 40 µM in experiment [1] (CBG99-luciferase assay, 48 h, read-out: IC50, late stage gametocytes); 0.376 µM in experiment [2]; 0.09 µM in experiment [3].

For orientation: IC50 means the concentration needed to halve the response being measured.
